{
  "source": "ChEMBL document CHEMBL6078723",
  "about": "“Novel steroidal β-carboline derivatives as promising antibacterial candidates against methicillin-resistant Staphylococcus aureus” (Eur J Med Chem, 2025)",
  "key": {"Staphylococcus aureus [1]": {"system": "Staphylococcus aureus", "assay": "Antibacterial activity against Staphylococcus aureus CGMCC1.8721 in presence of phosphatidylglycerol", "assay_type": "functional, organism-based"}, "Staphylococcus aureus [2]": {"system": "Staphylococcus aureus", "assay": "Antibacterial activity against methicillin-resistant Staphylococcus aureus CGMCC1.12409 infected in mouse model assessed as reduction in neutrophils in skin tissues at 5 mg/kg measured for 5 days by H and E staining based analysis", "assay_type": "functional, organism-based", "settings": "time 5.0 day"}, "Staphylococcus aureus [3]": {"system": "Staphylococcus aureus", "assay": "Antibacterial activity against methicillin-resistant Staphylococcus aureus CGMCC1.12409 infected in mouse model assessed as reduction in abscesses size at 5 mg/kg measured for 5 days", "assay_type": "functional, organism-based", "settings": "time 5.0 day"}, "Staphylococcus aureus [4]": {"system": "Staphylococcus aureus", "assay": "Antibacterial activity against methicillin-resistant Staphylococcus aureus CGMCC1.12409 infected in mouse model assessed as reduction in inflammation in skin tissues at 5 mg/kg measured for 5 days by H and E staining based analysis", "assay_type": "functional, organism-based", "settings": "time 5.0 day"}, "Staphylococcus aureus [5]": {"system": "Staphylococcus aureus", "assay": "Antibacterial activity against methicillin-resistant Staphylococcus aureus CGMCC1.12409 infected in mouse model assessed as reduction in bacterial load at infection site at 5 mg/kg measured for 5 days relative to control", "assay_type": "functional", "parameters": "scale not given: the % may be the effect or the level left", "settings": "time 5 day"}, "Staphylococcus aureus [6]": {"system": "Staphylococcus aureus", "assay": "Antibacterial activity against methicillin-resistant Staphylococcus aureus CGMCC1.12409 infected in mouse model assessed as reduction in bacterial clones at 5 mg/kg measured for 5 days", "assay_type": "functional, organism-based", "settings": "time 5.0 day"}, "Staphylococcus aureus [7]": {"system": "Staphylococcus aureus", "assay": "Induction of resistance development in Staphylococcus aureus CGMCC1.8721 assessed as fold increase in MIC at sub-lethal concentration following serial passages for 30 days relative to control", "assay_type": "functional", "settings": "time 30 day"}, "Staphylococcus aureus [8]": {"system": "Staphylococcus aureus", "assay": "Antibacterial activity against Staphylococcus aureus CGMCC1.8721", "assay_type": "functional"}, "Staphylococcus aureus [9]": {"system": "Staphylococcus aureus", "assay": "Bactericidal activity against methicillin-resistant Staphylococcus aureus ATCC 33591 by CLSI based method", "assay_type": "functional"}, "Staphylococcus aureus [10]": {"system": "Staphylococcus aureus", "assay": "Antibacterial activity against methicillin-resistant Staphylococcus aureus ATCC 33591", "assay_type": "functional"}, "Staphylococcus aureus [11]": {"system": "Staphylococcus aureus", "assay": "Bactericidal activity against methicillin-resistant Staphylococcus aureus ATCC 43300 by CLSI based method", "assay_type": "functional"}, "Staphylococcus aureus [12]": {"system": "Staphylococcus aureus", "assay": "Bactericidal activity against Staphylococcus aureus CGMCC1.8721 by CLSI based method", "assay_type": "functional"}, "Staphylococcus aureus [13]": {"system": "Staphylococcus aureus", "assay": "Bactericidal activity against methicillin-resistant Staphylococcus aureus CGMCC1.12409 by CLSI based method", "assay_type": "functional"}, "Staphylococcus aureus [14]": {"system": "Staphylococcus aureus", "assay": "Antibacterial activity against methicillin-resistant Staphylococcus aureus ATCC 43300", "assay_type": "functional"}, "Staphylococcus aureus [15]": {"system": "Staphylococcus aureus", "assay": "Antibacterial activity against methicillin-resistant Staphylococcus aureus CGMCC1.12409", "assay_type": "functional"}},
  "note": "Activity calls are given as the source filed them. The rule behind the calls is not given here.",
  "data": [
    {"compound": "CN[C@H](CC(C)C)C(=O)N[C@H]1C(=O)N[C@@H](CC(N)=O)C(=O)N[C@H]2C(=O)N[C@H]3C(=O)N[C@H](C(=O)N[C@H](C(=O)O)c4cc(O)cc(O)c4-c4cc3ccc4O)[C@H](O)c3ccc(c(Cl)c3)Oc3cc2cc(c3O[C@@H]2O[C@H](CO)[C@@H](O)[C@H](O)[C@H]2O[C@H]2C[C@](C)(N)[C@H](O)[C@H](C)O2)Oc2ccc(cc2Cl)[C@H]1O", "note": "[VANCOMYCIN]", "values": [
      {"measurement": "Activity", "setting": "Staphylococcus aureus [1]", "result": "Active"},
      {"measurement": "Activity", "setting": "Staphylococcus aureus [2]", "result": "Active"},
      {"measurement": "Activity", "setting": "Staphylococcus aureus [3]", "result": "Active"},
      {"measurement": "Activity", "setting": "Staphylococcus aureus [4]", "result": "Active"},
      {"measurement": "Activity", "setting": "Staphylococcus aureus [5]", "result": 92.98, "unit": "%"},
      {"measurement": "Activity", "setting": "Staphylococcus aureus [6]", "result": "Active"}
    ]},
    {"compound": "CCn1cc(C(=O)O)c(=O)c2cc(F)c(N3CCNCC3)cc21", "note": "[NORFLOXACIN]", "values": [
      {"measurement": "Activity", "setting": "Staphylococcus aureus [1]", "result": "Active"},
      {"measurement": "fold change (FC)", "setting": "Staphylococcus aureus [7]", "result": 64}
    ]},
    {"compound": "CO[C@H]1/C=C/O[C@@]2(C)Oc3c(C)c(O)c4c(O)c(c(/C=N/N5CCN(C)CC5)c(O)c4c3C2=O)NC(=O)/C(C)=C\\C=C\\[C@H](C)[C@H](O)[C@@H](C)[C@@H](O)[C@@H](C)[C@H](OC(C)=O)[C@@H]1C", "values": [
      {"measurement": "Activity", "setting": "Staphylococcus aureus [1]", "result": "Active"}
    ]},
    {"compound": "CCCCCCCCCC(=O)N[C@@H](Cc1c[nH]c2ccccc12)C(=O)N[C@@H](CC(N)=O)C(=O)N[C@@H](CC(=O)O)C(=O)N[C@@H]1C(=O)NCC(=O)N[C@@H](CCCN)C(=O)N[C@@H](CC(=O)O)C(=O)N[C@H](C)C(=O)N[C@@H](CC(=O)O)C(=O)NCC(=O)N[C@H](CO)C(=O)N[C@@H]([C@@H](C)CC(=O)O)C(=O)N[C@@H](CC(=O)c2ccccc2N)C(=O)O[C@@H]1C", "values": [
      {"measurement": "Activity", "setting": "Staphylococcus aureus [1]", "result": "inactive"}
    ]},
    {"compound": "CNC(C)[C@@H]1CC[C@@H](N)[C@@H](O[C@H]2[C@H](O)[C@@H](O[C@H]3OC[C@](C)(O)[C@H](NC)[C@H]3O)[C@H](N)C[C@@H]2N)O1.CN[C@@H]1[C@@H](O)[C@@H](O[C@@H]2[C@@H](O)[C@H](O[C@H]3O[C@H](C(C)N)CC[C@H]3N)[C@@H](N)C[C@H]2N)OC[C@]1(C)O.CN[C@@H]1[C@@H](O)[C@@H](O[C@@H]2[C@@H](O)[C@H](O[C@H]3O[C@H](CN)CC[C@H]3N)[C@@H](N)C[C@H]2N)OC[C@]1(C)O", "note": "(some centres undefined)", "values": [
      {"measurement": "Activity", "setting": "Staphylococcus aureus [1]", "result": "Active"}
    ]},
    {"compound": "CCCC[n+]1ccc2c([nH]c3ccc(OC)cc32)c1CC[C@H](C)[C@H]1CC[C@H]2[C@@H]3[C@H](O)C[C@@H]4C[C@H](O)CC[C@]4(C)[C@H]3CC[C@]12C.[Br-]", "values": [
      {"measurement": "MIC", "setting": "Staphylococcus aureus [8]", "result": 1, "unit": "mg/L"},
      {"measurement": "MBC", "setting": "Staphylococcus aureus [9]", "result": 16, "unit": "mg/L"},
      {"measurement": "MIC", "setting": "Staphylococcus aureus [10]", "result": 4, "unit": "mg/L"},
      {"measurement": "MBC", "setting": "Staphylococcus aureus [11]", "result": 8, "unit": "mg/L"},
      {"measurement": "MBC", "setting": "Staphylococcus aureus [12]", "result": 2, "unit": "mg/L"},
      {"measurement": "MBC", "setting": "Staphylococcus aureus [13]", "result": 8, "unit": "mg/L"},
      {"measurement": "MIC", "setting": "Staphylococcus aureus [14]", "result": 4, "unit": "mg/L"},
      {"measurement": "MIC", "setting": "Staphylococcus aureus [15]", "result": 4, "unit": "mg/L"}
    ]}
  ]
}
